Data reported in patent US9102752B2, “Peptide vaccine for prevention and immunotherapy of dementia of the Alzheimer's type” (United Biomedical, Inc., priority 2013, dated 2015).

System: anti-Aβ antibodies in sera from vaccinated baboons
Assay: Epitope mapping, 10-mer peptide-based ELISA with sera from vaccinated baboons
Details: peptide as plate coating
Procedure: Fine specificity analyses of anti-Aβ antibodies in immunized hosts or vaccines were determined by epitope mapping.
These nested peptides were used individually to coat microtiter wells as solid-phase immunoadsorbents for ELISA tests. The positive control ELISA plate was coated with Aβ1-28. They were tested for antibody binding with the sera from the four immunized baboons, from weeks 0, 10, 84 and 111. Baboon sera were serially diluted and assayed on plates coated with a 10-mer peptide at 5 ug/mL.

Row | Substance | ELISA Titer titers (Log10) (0 weeks post immunization) | ELISA Titer titers (Log10) (10 weeks post immunization) | ELISA Titer titers (Log10) (84 weeks post immunization) | ELISA Titer titers (Log10) (111 weeks post immunization)
1 | 8 (TEEISEVKMD) [Peptide 8] | 0.23 | 0.26 | 0.16 | 0.15
2 | 9 (EEISEVKMDA) [Peptide 9] | 0.24 | 0.30 | 0.21 | 0.22
3 | 10 (EISEVKMDAE) [Peptide 10] | 0.23 | 0.25 | 0.16 | 0.14
4 | 11 (ISEVKMDAEF) [Peptide 11] | 0.20 | 0.20 | 0.15 | 0.13
5 | 12 (SEVKMDAEFR) [Peptide 12] | 0.21 | 0.24 | 0.16 | 0.13
6 | 13 (EVKMDAEFRH) [Peptide 13] | 0.19 | 0.23 | 0.16 | 0.14
7 | 14 (VKMDAEFRHD) [Peptide 14] | 0.27 | 0.46 | 0.48 | 0.55
8 | 15 (KMDAEFRHDS) [Peptide 15] | 0.26 | 0.36 | 0.41 | 0.51
9 | 16 (MDAEFRHDSG) [Peptide 16] | 0.26 | 0.32 | 0.16 | 0.17
10 | 17 (AEFRHDSGYE) [Peptide 17] | 0.25 | 0.35 | 0.25 | 0.19
11 | 18 (EFRHDSGYEV) [Peptide 18] | 0.24 | 0.30 | 0.18 | 0.18
